Tested on: primary normal human melanocytes
Test: melanogenesis assay (14C-tyrosine incorporation) after 3 days of incubation
Type: cell-based
Settings: for melanogenesis rate (measured as 14C-tyrosine incorporation) based on the untreated control (=100%): 3 days incubation, primary normal human melanocytes, mean (X transverse), n=4
Protocol: A melanogenesis assay was carried out after 3 days of incubation of primary normal human melanocytes with test substance compared to control. The figures listed in the table give the melanogenesis rates (measured as ^14C-tyrosine incorporation) based on the untreated control (=100%). It results from this that the melanogenesis, i.e., the process of melanine synthesis, rises to 156% or 150% when the melanocytes are cultivated in the presence of the compound (I) (2E,3S,4R)-2,3,4-trimethyl-3-[(3E,7E,11E)-3,8,12,16-tetramethylheptadeca-3,7,11,15-tetraen-1-yl]cyclohexanone (n=4).
Furthermore, a melanogenesis assay was carried out after 3 days of incubation of primary normal human melanocytes with test substance compared to control. The figures listed in the table give the melanogenesis rates (measured as ^14C-tyrosine incorporation) based on the untreated control (=100%). It results from this that the melanogenesis, i.e., the process of melanine synthesis, rises to 135% or 113% when the melanocytes are cultivated in the presence of the preferred compound (III) (4E,8E,12E,16E)-3,7,11,15-tetrahydroxy-18-(hydroxymethyl)-2,4,6,10,14,16,20-heptamethyldocosa-4,8,12,16-teraenoic acid (n=4).

CC(C)=CCC/C(C)=C/CC/C(C)=C/CC/C=C(\C)CC[C@@]1(C)[C@H](C)CCC(=O)[C@@H]1C [compound (I), (2R,3S,4R)-2,3,4-trimethyl-3-[(3E,7E,11E)-3,8,12,16-tetramethylheptadeca-3,7,11,15-tetraen-1-yl]cylcohexanone]
melanogenesis rate (measured as 14C-tyrosine incorporation) based on the untreated control (=100%) (0.1 μg/ml test substance): 150%
melanogenesis rate (measured as 14C-tyrosine incorporation) based on the untreated control (=100%) (1 μg/ml test substance): 156%

CCC(C)CC(/C=C(\C)C(O)C(C)/C=C/C(O)C(C)/C=C/C(O)C(C)/C=C(\C)C(O)C(C)C(=O)O)CO (centres unmarked) [compound (III), (4E,8E,12E, 16E)-3,7,11,15-tetrahydroxy-18-(hydroxymethyl)-2,4,6,10,14,16,20-heptamethyldocosa-4,8,12,16-tetraenoic acid]
melanogenesis rate (measured as 14C-tyrosine incorporation) based on the untreated control (=100%) (0.1 μg/ml test substance): 153%
melanogenesis rate (measured as 14C-tyrosine incorporation) based on the untreated control (=100%) (1 μg/ml test substance): 172%
increase of the synthesis of melanin (result in words) (tests to increase the synthesis of melanin): particularly advantageous

— US20070243147A1, “Skin and/or Hair Composition Containing Compounds for Increasing The Tanning of Skin” (BEIERSDORF AG, priority 2004, published 2007)
